The text below walks through data of article PMC10970558 (International Journal of Molecular Sciences, 2024).

The test system of series [1] is C. elegans. Nature of the series: In vivo toxicity, C. elegans body length. More on the design: species or system Caenorhabditis elegans. The method, then:
(§1) Nematodes wild-type culture (strain N2) was maintained at 20 °C on NGM agar plates with bacteria Escherichia coli OP50 as food source. C. elegans culture was synchronized by treatment with hypochlorite. Obtained eggs were left in M9 buffer at room temperature to hatch until the following day. The next day L1 worms were placed on NGM plates with E. coli OP50 and left at 20 °C until reaching L4 stage (approximately 44 h). L4 worms were transferred to 15 mL falcons by washing NGM plates twice with 5 mL water and centrifuged at 1500 rpm for 3–4 min. Then supernatant was aspirated. Pellet was re-suspended with 5 mL of complete S medium followed by centrifugation. Subsequently the density of nematodes suspension was assessed according to Scanlan et al.. Worms were suspended in complete S medium with E. coli OP50 (1:1000), 0.08% cholesterol (5 mg/mL in Et-OH), 1% penicillin-streptomycin, 1% nystatin, and 100 mM FUdR (at final concentration 200 µM) to obtain 20 nematodes in 50 μL. FUdR was added to sterilize nematodes. After that worms were transferred to 96-well plate. The working solutions of tested drugs were prepared in the complete S medium with 0.1% DMSO and placed into a 96-well plate with previously seeded worms. Then, worms were incubated at 21 °C for 7 days. Live (moving and curling) and dead nematodes were counted every day with an inverted microscope with contrast phase (Delta Optical IB-100). Images of treated C. elegans were also collected. The assay was performed in triplicates in three independent experiments.
(§2) To analyze differences in nematode viability incubated with the respective concentrations of the compounds, the Kaplan–Meier estimator was used. Statistically significant differences between the control and treated groups were determined with Gehan’s Wilcoxon test. Statistically significant differences in body size between the control and treated groups were determined using a Kruskal–Wallis. p < 0.05 was considered statistically significant. All analyses and calculations were performed using Statistica 13.3 software (StatSoft, Cracow, Poland).

In series [2] the test system is HaCaT immortalized keratinocytes. The experiment in a line: Intracellular ATP level (CellTiter-Glo). The class given is cell-based, human. Conditions: 24 h. On the procedure:
(§3) Intracellular level of ATP was estimated with commercially available bioluminescent CellTiter-Glo® Assay kit from Promega, which was prepared according to manufacturer’s protocol and added to cells (100 μL/well). After 10 min incubation at RT the luminescence was measured using the Infinite M200 PRO Multimode Microplate Reader (TECAN Group Ltd., Männedorf, Switzerland) against blank (wells with the CellTiter-Glo® reagent only). The luminescence signal was proportional to ATP level. At the same time a parallel assay was performed, and cells were labeled with […] DAPI (as described above in proliferation assay). Using calibration curve, the DAPI fluorescence signal was used to estimate the number of cells in each well and to calculate luminescence signal intensity from ATP per one cell. The results were expressed as % of the control (non-treated cells).
In general terms: ATP-based viability assays read luminescence as a measure of living cells.

Series [3] relates to BJ normal fibroblasts. The experiment in a line: Intracellular ATP level (CellTiter-Glo). The conditions noted are these: 24 h. It is filed as cell-based, human. The method, then: as §3
For series [4], the system named is glioma stem cells GSC. Details: method as in PMID 18509487. The conditions noted are these: mouse model of malignant glioma; cited from earlier work.
In series [5] the test system is A172 glioma cells. Details: method as in PMID 37574500. The conditions noted are these: A172, 24 h incubation; cited from earlier work.
Series [6] can be described thus: In vivo toxicity, C. elegans survival. The conditions noted are these: N2, Caenorhabditis elegans, in vivo, other: exposure in complete S medium in 96-well plate, 7 days incubation, read-out: viability (living individuals). The method, then: as §1, §2
For series [7], the system named is C. elegans. Nature of the series: In vivo toxicity, C. elegans survival. Conditions: for concentration at which toxic: 7 days incubation, tested 25–400 µM; for effect on the entire nematode organism: up to 100 µM, up to 4th day of incubation. The method, then:
as §1, §2

Series [8] deals with HaCaT immortalized keratinocytes. The experiment in a line: Migration (scratch) assay. It is filed as cell-based, human. The method, then:
(§4) Cells were seeded in 24-well plates at 1.5 × 10^5 cells/well in 600 µL culture medium and incubated at 37 °C for 24 h to obtain full confluence. Afterwards, cells were scraped with a sterile 200 µL pipette tips and debris was removed. […] Medium with lowered 2% FBS was used to inhibit cell division. […] Assay was performed as described. The results were expressed as % of scraped area closure estimated as ratio of area measured before and after treatment with drugs.

Series [9] deals with BJ normal fibroblasts. Nature of the series: Migration (scratch) assay. It is filed as cell-based, human. Conditions: 12 h. On the procedure:
as §4

The nature of series [10]: Neutral red (NR) cytotoxicity assay. The class given is cell-based, human. The conditions noted are these: human, HaCaT immortalized keratinocytes, 50 µM, 24 h, NR assay. On the procedure:
(§5) After 24 h exposure to drugs, assay was performed as described.

Series [11] relates to HaCaT immortalized keratinocytes. Nature of the series: Neutral red (NR) cytotoxicity assay. It is filed as cell-based, human. The conditions noted are these: for IC50: 24 h treatment, NR assay, AAT Bioquest IC50 calculator. On the procedure:
as §5

Series [12] deals with BJ normal fibroblasts. The experiment in a line: Neutral red (NR) cytotoxicity assay. Conditions: for IC50: 24 h treatment, AAT Bioquest IC50 calculator. The class given is cell-based, human. On the procedure:
as §5

For series [13], the system named is HaCaT immortalized keratinocytes. The experiment in a line: Caspase 3/7 activity (apoptosis). The class given is cell-based, human. Conditions: 24 h. On the procedure:
(§6) As an apoptosis marker, Caspase 3/7 activity was measured with Apo-ONE® Homogenous Caspase-3/7 Assay (Promega). The fluorescence as determinant of caspase-3/7 activity was read at 485/535 nm using Tecan Infinite M200 PRO Multimode Microplate Reader (TECAN Group Ltd., Männedorf, Switzerland) and results were adjusted relatively to the number of cells per well (the number of cells was determined by fluorescence measurement after DAPI staining).

Series [14] concerns BJ normal fibroblasts. The experiment in a line: Caspase 3/7 activity (apoptosis). The conditions noted are these: 24 h. The class given is cell-based, human. The method, then:
as §6

Series [15] deals with U87 glioma. Details: method as in PMID 33941107. Conditions: cited from earlier work.
Series [16] deals with PPARγ. More on the design: method as in PMID 11684010. Conditions: cited from earlier work.
Series [17] concerns PPARγ in BJ cells. The experiment in a line: PPARγ level, Western blot. It is filed as cell-based, human. Conditions: non-toxic concentration (12.5 µM), 24 h. (In western blotting, separated proteins are transferred to a membrane and probed.)
Series [18] has as its system BJ normal fibroblasts. The experiment in a line: Proliferation assay (DAPI, 72 h). It is filed as cell-based, human. On the procedure:
Cells were seeded into 96-well, clear microplates at density 4 × 10^3 cells/well and incubated 24 h at 37 °C to attach. […] DMSO concentration was adjusted to 0.1% in all samples. The plates were placed for 72 h in incubator. Then, cells were washed with PBS and fixed in 3.7% formaldehyde solution in PBS for 15 min at RT, again washed with PBS and nuclei were staining with 600 nM DAPI solution in PBS (100 µL/well, 1 h). The fluorescent signal, proportional to the number of cells, was measured in Tecan Infinite M200 PRO Mulitmode Microplate Reader (TECAN Group Ltd., Männedorf, Switzerland) at 360 nm/460 nm. The results were expressed as % of the 0.1% DMSO treated control.

Structures are written as SMILES. Where “and” joins values, the source holds several entries; their conditions need not be identical. Equal entries are not always repeated. Where two headings read alike, the source gives them in different places.

The IC50 is the concentration needed to halve the response being measured. Usually viability stands for the share of living cells, or the viability signal relative to a control. Take `Cc1ccc(-c2cc(C(F)(F)F)nn2-c2ccc(S(N)(=O)=O)cc2)cc1` [CXB, celecoxib]: in series [1] (200 µM, 7 days), the “reduction of body length” value was 25%. In addition, in series [1] (7-day treatment), the “concentration at which body length was significantly shortened” value fell in the range of 50 to 400 µM. In series [1] (50 and 400 µM, 7 days), the “body length versus control group” value is “more than twice as short”. The “concentration at which intracellular ATP level increased” value in series [2] is 25 µM and 50 µM; in series [3], 25 µM. The IC50 in series [4] was 60 µM; in [11] (Homo sapiens, read-out: IC50), 59.5 µM; in series [12] (Homo sapiens, Fibroblast), 77.6 µM. For the same compound, in series [5], the “concentration from which cells were significantly destroyed via apoptosis” value is recorded as not below 25 µM. Also, the viability at 7 days, 200 µM in series [6] (200 µM) turned out to be 60%. Besides, the viability at 7 days, 400 µM in [6] (400 µM) was determined as 73%. In series [7] (7-day treatment), the “concentration at which lifespan was significantly shortened” value lay in the range of 25 to 400 µM. For the same compound, the “concentration at which toxic” value in series [7] was 25 µM. The “effect on the entire nematode organism” value in series [7] is listed as “no significant effect”. Moreover, the “concentration from which migration was reduced” value in series [8] (24 h) and in series [9] was not below 50 µM each time. The compound further displayed a viability at 24 h, 50 µM in series [10] of approximately 65%. Also, the “concentration from which caspase 3/7 activity increased / apoptosis induced” value in [13] and in series [14] was not below 50 µM in each case.
On to `Cc1c(C)c2c(c(C)c1O)CCC(C)(COc1ccc(CC3SC(=O)NC3=O)cc1)O2` (centres unmarked) [troglitazone], for which the “concentration inhibiting growth of U87 glioma tumors, colony formation and migration” value in [15] was 20 µM.
In the case of `CC1(COc2ccc(CC3SC(=O)NC3=O)cc2)CCCCC1` (centres unmarked) [Ciglitazone], the “concentration inhibiting growth of U87 glioma tumors, colony formation and migration” value in series [15] is 20 µM.
The compound `COC(=O)Nc1nc2ccc(C(=O)c3ccccc3)cc2[nH]1` [mebendazole] yielded an IC50 in series [7] (Caenorhabditis elegans, data from our studies) of 4 µM.
As a reminder, the Ki is a measure of affinity in units of concentration, obtained from inhibition or displacement. On to `CC(C)C[C@H](NC(=O)OCC1c2ccccc2-c2ccccc21)C(=O)O` [FL, Fmoc-L-Leucine], for which the “change in nematode body length” value in series [1] (7 days) is given as “did not significantly affect”. Further, in series [2], the “concentration at which intracellular ATP level increased” value was found to be 100 µM. Moreover, the “concentration at which intracellular ATP level decreased” value in [3] was found to be 100 µM. Besides, in series [16], the Ki was 15 µM. The “increase of PPARγ level” value in series [17] is 55% and 50%. In series [7], the “concentration at which toxic” value is listed as 400 µM and the “effect on the entire nematode organism” value was “no significant effect”. Moreover, in [8] (entire range of concentrations used (25–100 µM)), the effect on migration result was “did not affect”. Also, the “concentration from which migration was reduced” value in [9] is reported as not below 50 µM. Further, in [18], the “concentration at which cell division was inhibited” value was 100 µM. The IC50 entry in series [11] is on record as “≫”. Further, in [11] (up to the highest (100 µM) concentration), the sensitivity of cells entry is recorded as “not sensitive”. The viability result in series [12] (100 µM, 24 h) is listed as “about 70%”. Besides, the IC50 in series [12] was 400 µM. In addition, the “change of caspase 3/7 activity level” value in series [13] is listed as “reduced”. Further, the “concentration from which caspase 3/7 activity increased / apoptosis induced” value in series [14] was not below 50 µM.
